Structures can show the parent of a compound that is named as a salt.
Legend:
ZDF rat = experiment: Effect of long-term inhibition of DP-IV in ZDF rat (four weeks dosing); assay type: in vivo; details: male ZDF rats; for Glycaemia: day of development of significant hyperglycaemia: obese control hyperglycaemic at day 8
Text: Control animals are given vehicle. A group of untreated lean rats is used as a comparison. Glycaemia, insulinaemia, body weight, food and water intake, and plasma triglyceride and free fatty acid levels are monitored throughout the study.

Human DP-IV = Human DP-IV (Homo sapiens, UniProt P27487); assay type: biochemical; details: substrate Ala-Pro-AFC, fluorescence
Sequence of Human DP-IV (P27487 whole entry): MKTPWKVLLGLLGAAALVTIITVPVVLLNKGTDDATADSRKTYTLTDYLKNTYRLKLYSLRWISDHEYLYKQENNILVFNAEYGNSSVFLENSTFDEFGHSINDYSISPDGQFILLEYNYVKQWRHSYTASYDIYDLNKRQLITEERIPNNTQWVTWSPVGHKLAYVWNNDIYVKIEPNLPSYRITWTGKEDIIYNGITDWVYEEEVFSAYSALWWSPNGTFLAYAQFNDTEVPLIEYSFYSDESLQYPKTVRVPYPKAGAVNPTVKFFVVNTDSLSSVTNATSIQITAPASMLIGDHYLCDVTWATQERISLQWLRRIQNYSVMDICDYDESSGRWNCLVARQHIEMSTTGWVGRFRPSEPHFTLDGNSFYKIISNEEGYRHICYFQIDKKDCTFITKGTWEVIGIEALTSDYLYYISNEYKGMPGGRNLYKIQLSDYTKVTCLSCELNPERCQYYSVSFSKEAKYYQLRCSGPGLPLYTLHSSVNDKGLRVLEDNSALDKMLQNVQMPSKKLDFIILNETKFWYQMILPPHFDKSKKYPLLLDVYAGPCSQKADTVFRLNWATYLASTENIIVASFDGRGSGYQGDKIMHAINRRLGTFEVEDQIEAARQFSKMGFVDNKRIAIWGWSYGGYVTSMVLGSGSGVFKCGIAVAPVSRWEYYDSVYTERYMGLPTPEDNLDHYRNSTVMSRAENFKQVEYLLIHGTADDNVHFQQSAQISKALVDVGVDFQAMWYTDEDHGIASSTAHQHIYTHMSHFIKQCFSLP
Protocol: The in vitro inhibitory action of the compounds is determined in a fluorimetric assay. Human DP-IV is incubated with a standard substrate, Ala-Pro-AFC, in the presence of various concentrations of the inhibitor. The reaction is monitored by measuring the increase in fluorescence due to the reaction product, AFC. Using standard manipulations, an inhibitory constant, Ki, is determined.

SMILES: CC(C)(C)[C@H](N)C(=O)N1CCC[C@H]1C#N [Example 1A, (2S)-1-((2′S)-2′-amino-3′,3′-dimethylbutanoyl)pyrrolidine-2-carbonitrile hydrochloride]
- Glycaemia: day of development of significant hyperglycaemia (ZDF rat; 10 mg/kg p.o. once daily): 15 days
- Insulinaemia: day on which peak insulin level is reached (ZDF rat; 10 mg/kg p.o. once daily, obese control peak by day 8): 11 days
- Glycaemia: day of development of significant hyperglycaemia (ZDF rat; 10 mg/kg p.o. twice daily): 24 days

SMILES: N#C[C@@H]1CCCN1C(=O)[C@@H](N)CCCNC(=O)c1cnccn1 [Example 1B, (2S)-1-((2′S)-2′-amino-5′-pyrazinecarbonylaminopentanoyl)pyrrolidine-2-carbonitrile trifluoroacetate]
- Ki (Human DP-IV): 0.4 nM
